How the values were obtained:
[1] = tested on: HAP1 MTAP-intact cell line; experiment: SDMA in-cell western assay, HAP1 MTAP-intact; type: cell-based; details: Homo sapiens
Experimental: (§1) Table 1 also indicates IC50 values in an MTAP-isogenic cell line pair for exemplary compounds in an SDMA in-cell western assay (columns 7-8). HAP1 MTAP-intact is a cell line in which endogenous levels of MTAP are expressed, and HAP1 MTAP-deleted is an MTAP-null cell line. For Table 1, “a*” and “aa*” indicates an IC50 of <1 μM, “b*” and “bb*” indicates an IC50 equal to or greater than 1 μM but less than 10 μM, and “c*” and “cc*” indicates an IC50 of greater than or equal to 10 μM in the HAP1 MTAP-intact and the HAP1 MTAP-deleted assays, respectively. In column 9, “A*” indicates an IC50 ratio greater than or equal to 10 fold between the IC50 in the HAP1 MTAP-intact cell line and the HAP1 MTAP-deleted cell line; “B*” indicates an IC50 ratio greater than or equal to 3 fold but lower than 10 fold between the IC50 in the HAP1 MTAP-intact cell line and the HAP1 MTAP-deleted cell line; “C*” indicates an IC50 ratio of less than 3 fold between the IC50 in the HAP1 MTAP-intact cell line and the HAP1 MTAP-deleted cell line. Compounds with a ratio in the SDMA in-cell western assay of equal to or greater than 3 fold are considered MTAP-selective.

[2] = tested on: HAP1 MTAP-deleted cell line; experiment: SDMA in-cell western assay, HAP1 MTAP-deleted; type: cell-based; details: for IC50: Homo sapiens, HAP1 MTAP-deleted (MTAP-null) cell line; for MTAP Intact/Deleted Ratio: IC50 ratio HAP1 MTAP-intact / HAP1 MTAP-deleted, >=3 fold considered MTAP-selective
Experimental: as §1

PRMT5 [3] = molecular target: T1, PRMT5 (Homo sapiens, UniProt O14744); experiment: PRMT5 inhibition assay with no cofactor; type: biochemical; details: against PRMT5 with no cofactor; read-out: No Co-factor IC50
T1 construct: purchased Viva (custom protein)
T1 sequence (O14744 whole entry): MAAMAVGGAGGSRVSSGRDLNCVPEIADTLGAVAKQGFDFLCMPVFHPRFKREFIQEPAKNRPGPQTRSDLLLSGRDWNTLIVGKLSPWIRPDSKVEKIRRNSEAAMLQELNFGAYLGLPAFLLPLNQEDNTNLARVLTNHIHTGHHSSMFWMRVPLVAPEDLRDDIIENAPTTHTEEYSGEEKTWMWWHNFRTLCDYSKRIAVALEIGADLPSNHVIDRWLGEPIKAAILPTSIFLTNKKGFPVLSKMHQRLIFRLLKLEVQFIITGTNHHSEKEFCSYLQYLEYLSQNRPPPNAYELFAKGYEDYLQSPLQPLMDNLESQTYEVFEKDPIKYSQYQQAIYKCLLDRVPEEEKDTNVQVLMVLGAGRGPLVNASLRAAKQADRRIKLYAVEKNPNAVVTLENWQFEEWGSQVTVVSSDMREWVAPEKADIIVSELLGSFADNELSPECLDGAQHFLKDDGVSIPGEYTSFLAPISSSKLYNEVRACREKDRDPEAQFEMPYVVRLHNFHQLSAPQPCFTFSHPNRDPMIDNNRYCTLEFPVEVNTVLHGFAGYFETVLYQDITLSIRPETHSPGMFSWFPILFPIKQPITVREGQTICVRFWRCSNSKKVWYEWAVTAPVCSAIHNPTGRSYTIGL
T1 sequence (Q9BQA1 whole entry partner): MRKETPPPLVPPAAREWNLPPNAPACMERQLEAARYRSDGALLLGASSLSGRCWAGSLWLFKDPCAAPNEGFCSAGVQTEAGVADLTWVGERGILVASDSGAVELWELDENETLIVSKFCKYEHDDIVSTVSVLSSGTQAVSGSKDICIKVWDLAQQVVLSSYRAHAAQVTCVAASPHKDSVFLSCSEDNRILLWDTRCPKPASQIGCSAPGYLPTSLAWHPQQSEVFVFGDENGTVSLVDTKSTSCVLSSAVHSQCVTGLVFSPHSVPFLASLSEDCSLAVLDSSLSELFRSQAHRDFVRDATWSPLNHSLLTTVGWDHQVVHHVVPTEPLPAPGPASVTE

PRMT5 [4] = molecular target: T1, PRMT5; experiment: PRMT5 inhibition assay with MTA as cofactor; type: biochemical; details: against PRMT5 with MTA as cofactor
From the text: The Ki values can be calculated from the IC50 values as described in the Examples section. As detailed in the Examples section, for the assay performed in the presence of SAM, IC50=Ki×1.5 (Ki=IC50/1.5). For the assay performed in the presence of MTA, IC50=Ki×13.5 (Ki=IC50/13.5). Column 6 indicates the ratio between the Ki of compounds in the presence of SAM and the Ki of compounds in the presence of MTA

IC50 [1] [nM]	IC50 [2] [nM]	IC50 (PRMT5 [3]) [nM]	IC50 (PRMT5 [4]) [nM]	SMILES	MTAP Intact/Deleted Ratio [2]
≥ 10000	1000 to 10000	50 to 500	< 50	COCCN(C)c1cc(C(=O)NC[C@@H](O)[C@@H]2Cc3ccc(OCc4ocnc4C)cc3CN2)cc(NC2CN(C(C)=O)C2)n1 [Compound 69]	C* (an IC50 ratio of less than 3 fold between the IC50 in the HAP1 MTAP-intact cell line and the HAP1 MTAP-deleted cell line)
≥ 10000	< 1000	50 to 500	< 50	COCCN(C)c1cc(C(=O)NC[C@@H](O)[C@@H]2Cc3ccc(OCc4ocnc4C)cc3CN2)cc(NC2CCN(C(C)=O)CC2)n1 [Compound 66]	A* (an IC50 ratio greater than or equal to 10 fold between the IC50 in the HAP1 MTAP-intact cell line and the HAP1 MTAP-deleted cell line)
		500 to 5000	50 to 500	CC(=O)N1CC(Nc2cc(C(=O)NCC[C@@H]3Cc4ccc(OCc5ocnc5C)cc4CN3)nc(N3CCCCC3)n2)C1 (single isomer, unassigned) [85**]	
		50 to 500	< 50	CC(=O)N1CC(Nc2cc(C(=O)NCC[C@H]3Cc4ccc(OCc5ocnc5C)cc4CN3)nc(N3CCCCC3)n2)C1 (single isomer, unassigned) [83**]	
1000 to 10000	< 1000	50 to 500	< 50	COCCN(C)c1nc(NC2CCN(C(C)=O)CC2)cc(C(=O)NC[C@@H](O)[C@@H]2Cc3ccc(OCc4ocnc4C)cc3CN2)n1 [Compound 79]	A* (an IC50 ratio greater than or equal to 10 fold between the IC50 in the HAP1 MTAP-intact cell line and the HAP1 MTAP-deleted cell line)
≥ 10000	1000 to 10000	50 to 500	< 50	CC(=O)N1CC(Nc2cc(C(=O)NC[C@@H](O)[C@@H]3Cc4ccc(OCc5ocnc5C)cc4CN3)cc(N3CCN(C(C)C)CC3)n2)C1 [Compound 67]	C* (an IC50 ratio of less than 3 fold between the IC50 in the HAP1 MTAP-intact cell line and the HAP1 MTAP-deleted cell line)
1000 to 10000	< 1000	50 to 500	< 50	CC(=O)N1CCC(Nc2cc(C(=O)NC[C@@H](O)[C@@H]3Cc4ccc(OCc5ocnc5C)cc4CN3)nc(N3CCCC3)n2)CC1 [Compound 81]	A* (an IC50 ratio greater than or equal to 10 fold between the IC50 in the HAP1 MTAP-intact cell line and the HAP1 MTAP-deleted cell line)
		< 50	< 50	Cc1ncoc1COc1ccc2c(c1)CN[C@H]([C@H](O)CNC(=O)c1cc(NC3CC4(CCC4)C3)nc(N3CCN(C(C)C)CC3)n1)C2 [Compound 86]	
		< 50	< 50	Cc1ncoc1COc1ccc2c(c1)CN[C@H]([C@H](O)CNC(=O)c1cc(NC3CC4(CCC4)C3)nc(N3CCN(C(=O)C4CC4)CC3)n1)C2 [Compound 84]	
< 1000	< 1000	< 50	< 50	Cc1ncoc1COc1ccc2c(c1)CN[C@H]([C@H](O)CNC(=O)c1cc(NC3CC4(CCC4)C3)nc(N3CCN(C(C)C)CC3)c1)C2 [Compound 70]	B* (an IC50 ratio greater than or equal to 3 fold but lower than 10 fold between the IC50 in the HAP1 MTAP-intact cell line and the HAP1 MTAP-deleted cell line)
≥ 10000	< 1000			Cc1ncoc1COc1ccc2c(c1)CN[C@H]([C@H](O)CNC(=O)c1ccnc(NC3CCC3)c1)C2 [Compound 15, 2-(cyclobutylamino)-N—((R)-2-hydroxy-2-((S)-7-((4-methyloxazol-5-yl)methoxy)-1,2,3,4-tetrahydroisoquinolin-3-yl)ethyl)isonicotinamide]	

The next lines start with the compound.

SMILES	IC50 [1] [nM]	IC50 [2] [nM]	IC50 (PRMT5 [3]) [nM]	IC50 (PRMT5 [4]) [nM]	MTAP Intact/Deleted Ratio [2]
COCCN(C)c1nc(NC2CC3(CCC3)C2)cc(C(=O)NC[C@@H](O)[C@@H]2Cc3ccc(OCc4ocnc4C)cc3CN2)n1 [Compound 80]	1000 to 10000	< 1000			
Cn1nccc1COc1ccc2c(c1)CN[C@H]([C@H](O)CNC(=O)c1ccnc(NC3CCC3)c1)C2 [Compound 14, 2-(cyclobutylamino)-N—((R)-2-hydroxy-2-((S)-7-((1-methyl-1H-pyrazol-5-yl)methoxy)-1,2,3,4-tetrahydroisoquinolin-3-yl)ethyl)isonicotinamide]	≥ 10000	< 1000			
CC(=O)N1CC2(CC(Nc3cc(C(=O)NC[C@@H](O)[C@@H]4Cc5ccc(OCc6ocnc6C)cc5CN4)nc(N4CCCCC4)n3)C2)C1 [Compound 48, 6-[(2-acetyl-2-azaspiro[3.3]heptan-6-yl)amino]-N-[(2R)-2-hydroxy-2-[(3S)-7-[(4-methyloxazol-5-yl)methoxy]-1,2,3,4-tetrahydroisoquinolin-3-yl]ethyl]-2-(1-piperidyl)pyrimidine-4-carboxamide]	< 1000	< 1000			
COc1ccc(C(=O)N2CCc3cc(C(=O)NC[C@@H](O)[C@@H]4Cc5ccc(OCc6cnco6)cc5CN4)ccc3C2)cc1 [Compound 74, N-[(2R)-2-hydroxy-2-[(3S)-7-(oxazol-5-ylmethoxy)-1,2,3,4-tetrahydroisoquinolin-3-yl]ethyl]-2-(4-methoxybenzoyl)-3,4-dihydro-1H-isoquinoline-6-carboxamide]		< 1000	50 to 500	< 50	
Cc1ncoc1COc1cc2c(cc1F)C[C@@H]([C@H](O)CNC(=O)c1ccnc(NC3CCC3)c1)NC2 [Compound 65, 2-(cyclobutylamino)-N-[(2R)-2-[(3S)-6-fluoro-7-[(4-methyloxazol-5-yl)methoxy]-1,2,3,4-tetrahydroisoquinolin-3-yl]-2-hydroxy-ethyl]pyridine-4-carboxamide]	≥ 10000	< 1000	500 to 5000	< 50	A* (an IC50 ratio greater than or equal to 10 fold between the IC50 in the HAP1 MTAP-intact cell line and the HAP1 MTAP-deleted cell line)
CCOc1cc(C(=O)N2C3CCC2COC3)ccc1C(=O)NC[C@@H](O)[C@@H]1Cc2ccc(OCc3ccncc3)cc2CN1 [Compound 73, 2-ethoxy-N-[(2R)-2-hydroxy-2-[(3S)-7-(4-pyridylmethoxy)-1,2,3,4-tetrahydroisoquinolin-3-yl]ethyl]-4-(3-oxa-8-azabicyclo[3.2.1]octane-8-carbonyl)benzamide]		1000 to 10000	≥ 5000	50 to 500	
O=C(NC[C@@H](O)[C@@H]1Cc2ccc(OCc3cnco3)cc2CN1)c1ccnc(NC2CCC2)c1 [Compound 19, 2-(cyclobutylamino)-N—((R)-2-hydroxy-2-((S)-7-(oxazol-5-ylmethoxy)-1,2,3,4-tetrahydroisoquinolin-3-yl)ethyl)isonicotinamide]	≥ 10000	1000 to 10000			
CCOc1cc(C(=O)N2C3CCC2COC3)ccc1C(=O)NC[C@@H](O)[C@@H]1Cc2ccc(OCc3ccn[nH]3)cc2CN1 [Compound 76, 2-ethoxy-N-[(2R)-2-hydroxy-2-[(3S)-7-(1H-pyrazol-5-ylmethoxy)-1,2,3,4-tetrahydroisoquinolin-3-yl]ethyl]-4-(3-oxa-8-azabicyclo[3.2.1]octane-8-carbonyl)benzamide]	≥ 10000		500 to 5000	50 to 500	
COc1ccc(C(=O)N2CCc3cc(C(=O)NC[C@@H](O)[C@@H]4Cc5ccc(OCc6ccnn6C)cc5CN4)ccc3C2)cc1 [Compound 77, N-[(2R)-2-hydroxy-2-[(3S)-7-[(2-methylpyrazol-3-yl)methoxy]-1,2,3,4-tetrahydroisoquinolin-3-yl]ethyl]-2-(4-methoxybenzoyl)-3,4-dihydro-1H-isoquinoline-6-carboxamide]	1000 to 10000		500 to 5000	< 50	
CC(=O)N1CC(Nc2cc(C(=O)NC[C@@H](O)[C@@H]3Cc4ccc(OCc5ocnc5C)cc4CN3)nc(N3CCCCC3)n2)C1 [Compound 22, 6-((1-acetylazetidin-3-yl)amino)-N—((R)-2-hydroxy-2-((S)-7-((4-methyloxazol-5-yl)methoxy)-1,2,3,4-tetrahydroisoquinolin-3-yl)ethyl)-2-(piperidin-1-yl)pyrimidine-4-carboxamide]	1000 to 10000	< 1000			
CC(=O)N1CC(Nc2cc(C(=O)NC[C@H](O)[C@@H]3Cc4ccc(OCc5ocnc5C)cc4CN3)nc(N3CCCCC3)n2)C1 [Compound 64]		1000 to 10000			
CC(=O)N1CC(Nc2cc(C(=O)NC[C@@H](O)[C@@H]3Cc4ccc(OCc5ocnc5C)cc4CN3)nc(N3CCC(C)CC3)n2)C1 [Compound 62, 6-[(1-acetylazetidin-3-yl)amino]-N-[(2R)-2-hydroxy-2-[(3S)-7-[(4-methyloxazol-5-yl)methoxy]-1,2,3,4-tetrahydroisoquinolin-3-yl]ethyl]-2-(4-methyl-1-piperidyl)pyrimidine-4-carboxamide]	1000 to 10000	< 1000			

Reference: patent US12403137B2, “Compounds and methods of use” (Tango Therapeutics, Inc., priority 2019, dated 2025)
